According to publication PMC8988824, “Subcutaneous in situ gel delivered leuprolide acetate's consistent and prolonged drug delivery maintains effective testosterone suppression independent of age and weight in men with prostate cancer” (BJUI Compass, 2020):

Assay: clinical
Settings: male, human, in vivo, sc, 7.5 mg
Experimental: An 8‐week, open‐label, single‐arm study was performed with the objective of evaluating safety, tolerability, and PK following a single dose of 7.5 mg Gel‐LA in surgically castrated men with advanced PCa. Testosterone levels were not evaluated for this study population.
Men aged 45‐85 years with histologically or cytologically proven adenocarcinoma of the prostate who had undergone bilateral orchiectomy at least 2 months prior to study start were eligible. […]
All patients received a single dose of 7.5 mg LA suspended in the ATRIGEL Delivery System (34% w/w Poly [DL‐lactide‐co‐glycolide] and 66% w/w N‐methyl‐2‐pyrrolidone) as a subcutaneous injection into the upper right or upper left quadrant of the abdomen. […] LA concentrations were determined with solid‐phase extraction and high‐performance liquid chromatography followed by radioimmunoassay. […]
Serum concentrations of LA were summarized as mean, standard deviation (SD), % relative SD, median, minimum, and maximum levels. PK parameters included the maximum observed LA concentration (Cmax), time of maximum serum concentration (Tmax), time of last measured LA concentration in serum (tldc), and area under the LA serum concentration vs time curve (AUC). AUC was determined by linear trapezoidal interpolation, and actual times of blood draws were used for the PK analyses. […]

SMILES: CCNC(=O)[C@@H]1CCCN1C(=O)[C@H](CCCNC(=N)N)NC(=O)[C@H](CC(C)C)NC(=O)[C@@H](CC(C)C)NC(=O)[C@H](Cc1ccc(O)cc1)NC(=O)[C@H](CO)NC(=O)[C@H](Cc1c[nH]c2ccccc12)NC(=O)[C@H](Cc1c[nH]cn1)NC(=O)[C@@H]1CCC(=O)N1 [Leuprolide Acetate, Leuprolide acetate]
- AUC(0-t): 999 ng·h/mL
